The text below walks through data of patent US8309558B2, “Compounds for the treatment of hepatitis C” (Bristol-Myers Squibb Company, priority 2008, dated 2012).

What is called IC50 is the concentration that inhibits the measured activity by half. In general, EC50 refers to the concentration needed to bring the measured effect to its halfway point.

The target of test [1] is T1, HCV NS5B RdRp genotype 1b (Hepatitis C virus genotype 1b, UniProt Q9WMX2).
T1 construct: The protein was expressed with an 18 amino acid C-terminal truncation to enhance the solubility; made in house; host or cells: E. coli BL21(DE3), pET21a vector
Put plainly: Standard HCV NS5B RdRp enzyme assay. The class given is biochemical. The conditions noted are these: HCV NS5B RdRp genotype 1b, read-out: IC50. An outline of the steps: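 C-terminally truncated (18 aa) genotype 1b NS5B from E. coli, 28 nM, with 6 nM polyA template, 180 nM biotinylated oligo-dT12 primer and 3H-UTP (0.29 μM total UTP). Hepes pH 7.5 buffer with 2% DMSO; 60 min at 30° C. EDTA stop, SPA read-out; IC50 from seven concentrations by four-parameter fit.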

In test [2] the test system is HCV replicon cells. Put plainly: HCV replicon FRET / luciferase assay (96-well plates). Type of test: cell-based. The conditions noted are these: Hepatitis C virus, HCV replicon, read-out: EC50. An outline of the steps:
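Replicon cells + titrated cpds, 37 °C CO2. Alamar blue for cytotoxicity, PBS rinse, then lysis reagent w/ 20 μM FRET peptide (EDANS/DABCYL), 150 mM NaCl; kinetic read ex340/em490, 20 cycles. Alt: Dual-Glo luciferase. EC50 = 50% drop in FRET/luciferase signal after background subtraction.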

The mark [3] stands for this setting: untitled table after Table 1b, values without asterisk.

The structures appear in SMILES notation. Where two headings read alike, the source gives them in different places. Bounds are passed on as bounds.

T1 sequence (Q9WMX2 2420-2992): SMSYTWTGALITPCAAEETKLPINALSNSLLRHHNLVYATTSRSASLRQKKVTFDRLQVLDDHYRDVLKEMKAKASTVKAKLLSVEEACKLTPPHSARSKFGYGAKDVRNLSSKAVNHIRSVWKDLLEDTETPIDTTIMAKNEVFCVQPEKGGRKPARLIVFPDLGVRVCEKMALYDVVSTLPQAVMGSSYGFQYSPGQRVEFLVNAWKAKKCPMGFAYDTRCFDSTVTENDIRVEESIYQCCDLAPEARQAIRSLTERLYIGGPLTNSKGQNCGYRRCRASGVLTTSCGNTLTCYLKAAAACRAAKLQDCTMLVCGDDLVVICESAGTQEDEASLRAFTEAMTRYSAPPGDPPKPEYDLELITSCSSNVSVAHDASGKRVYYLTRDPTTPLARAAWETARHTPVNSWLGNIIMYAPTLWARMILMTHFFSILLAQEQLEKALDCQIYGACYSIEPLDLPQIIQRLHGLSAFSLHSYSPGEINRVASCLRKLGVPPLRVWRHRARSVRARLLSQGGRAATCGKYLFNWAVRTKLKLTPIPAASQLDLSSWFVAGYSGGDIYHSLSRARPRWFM

On to `CNC(=O)c1c(-c2ccc(F)cc2)oc2ccc(-c3cccc(C(=O)O)c3OC)cc12`, for which the IC50 in test [1] (untitled table after Table 1b) was 4750 nM. For the same molecule, in test [2] (setting [3]), the EC50 was 13300 nM.
Regarding `CNC(=O)c1c(-c2ccc(F)cc2)oc2ccc(-c3cc(C(=O)NC4(c5cccc(C)c5)CC4)c(OC)cc3C)cc12`, the IC50 in test [1] (Table 1d (class symbols)) lay within 1 to 250 nM. The EC50 in test [2] (24 h, Table 1d (class symbols)) fell in the range of 1 to 250 nM.
Consider `CNC(=O)c1c(-c2ccc(F)cc2)oc2ccc(-c3cc(C(=O)NC4(c5cn(C)cn5)CC4)ccc3C)cc12`, for which, in test [1] (Table 1d (class symbols)), the IC50 is under 20 nM. Also, the EC50 in test [2] (24 h, Table 1d (class symbols)) lay in the range of 1 to 250 nM.
The like results for `CNC(=O)c1c(-c2ccc(F)cc2)oc2ccc(-c3cc(C(=O)NC4(c5ccccn5)CC4)c(OCCC(N)=O)cc3C)cc12` were, in that order, under 20 nM and 1 to 250 nM.
For the molecule `CNC(=O)c1c(-c2ccc(F)cc2)oc2ccc(-c3cc(C(=O)NC4(c5cnc(C)cn5)CC4)ccc3C)c(F)c12`, the half-inhibitory concentration (IC50) in test [1] (Table 1d (class symbols)) was 1 to 250 nM. Moreover, the EC50 in test [2] (24 h, Table 1d (class symbols)) was 1 to 250 nM.
For the molecule `C#CCOc1cc(C)c(-c2ccc3oc(-c4ccc(F)cc4)c(C(=O)NC)c3c2)cc1C(=O)NC1(c2ccccn2)CC1`, in test [1] (Table 1d (class symbols)), the IC50 is 1 to 250 nM. For the same molecule, in test [2] (24 h, Table 1d (class symbols)), the EC50 was 1 to 250 nM.
In the case of `CNC(=O)c1c(-c2ccc(F)cc2)oc2ccc(-c3cc(C(=O)NC4(c5cnccn5)CC4)c(OC)cc3C)cc12`, the IC50 in test [1] (Table 1d (class symbols)) fell in the range of 1 to 250 nM. Moreover, the EC50 in test [2] (24 h, Table 1d (class symbols)) lay in the range of 1 to 250 nM.
Consider `CNC(=O)c1c(-c2ccc(F)cc2)oc2ccc(-c3cccc(C(=O)NC4(c5ccccc5)CC4)c3)cc12` [drawing 67], for which the IC50 in test [1] (Table 1a) is under 250 nM. In test [2] (Table 1a), the EC50 is under 250 nM.
For the molecule `CNC(=O)c1c(-c2ccc(F)cc2)oc2cc(N)c(-c3cccc(C(=O)NC(C)(C)c4ccccc4)c3)cc12` [drawing 94], the IC50 in test [1] (Table 1a) is under 250 nM. Also, in test [2] (Table 1a), the EC50 was under 250 nM.
On to `CNC(=O)c1c(-c2ccc(F)cc2)oc2ccc(-c3cc(C(=O)NC4(c5ccccc5)CC4)ccc3F)cc12` [drawing 100], for which the IC50 in test [1] (Table 1a) is under 250 nM. Also, the EC50 in test [2] (Table 1a) was under 250 nM.
`CNC(=O)c1c(-c2ccc(F)cc2)oc2ccc(-c3cccc(C(=O)NCCOC)c3)cc12` [drawing 182]: in test [1] (Table 1a), the IC50 fell in the range of 1000 to 10000 nM. Also, in test [2] (Table 1a), the EC50 lay in the range of 1000 to 10000 nM.
On to `CNC(=O)c1c(-c2ccc(F)cc2)oc2ccc(-c3cccc(C(=O)N(C)CCC#N)c3)cc12` [drawing 204], for which, in test [1] (Table 1a), the IC50 lay in the range of 250 to 1000 nM. In addition, the EC50 in test [2] (Table 1a) was in the range of 1000 to 10000 nM.
On to `CNC(=O)c1c(-c2ccc(F)cc2)oc2ccc(-c3cccc(C(=O)N4CCCCC4C)c3)cc12` (centres unmarked) [drawing 208], for which the IC50 in test [1] (Table 1a) was in the range of 250 to 1000 nM. Besides, in test [2] (Table 1a), the EC50 fell in the range of 1000 to 10000 nM.
For `CCC[C@H](CO)NC(=O)c1cccc(-c2ccc3oc(-c4ccc(F)cc4)c(C(=O)NC)c3c2)c1` [drawing 228] the same measures were 1000 to 10000 nM and 1000 to 10000 nM.
`CCCC[C@H](CO)NC(=O)c1cccc(-c2ccc3oc(-c4ccc(F)cc4)c(C(=O)NC)c3c2)c1` [drawing 232]: the IC50 in test [1] (Table 1a) was 250 to 1000 nM. Besides, the EC50 in test [2] (Table 1a) lay within 1000 to 10000 nM.
The like results for `CNC(=O)c1c(-c2ccc(F)cc2)oc2ccc(-c3cccc(C(=O)N[C@@H](CO)C(C)C)c3)cc12` [drawing 235] were, in that order, 250 to 1000 nM and 1000 to 10000 nM.
For `CNC(=O)c1c(-c2ccc(F)cc2)oc2ccc(-c3cccc(C(=O)N[C@H]4CCC[C@H]4c4ccc(Cl)cc4)c3)cc12` [drawing 243] the same measures were over 10000 nM and 1000 to 10000 nM.
`CNC(=O)c1c(-c2ccc(F)cc2)oc2ccc(-c3cccc(C(=O)N4CC[C@H](NC(C)=O)C4)c3)cc12` [drawing 277]: in test [1] (Table 1a), the IC50 was 1000 to 10000 nM. Further, the EC50 in test [2] (Table 1a) is over 10000 nM.
For `CNC(=O)c1c(-c2ccc(F)cc2)oc2ccc(-c3ccc(C(=O)N(C)Cc4cccnc4)cc3)cc12` [drawing 286], in test [1] (Table 1a), the IC50 lay within 1000 to 10000 nM. Further, the EC50 in test [2] (Table 1a) is over 10000 nM.
Consider `CNC(=O)c1c(-c2ccc(F)cc2)oc2ccc(-c3ccc(C(=O)N4CCC[C@@H]4COC)cc3)cc12` [drawing 288], for which the IC50 in test [1] (Table 1a) was over 10000 nM. Moreover, the EC50 in test [2] (Table 1a) is over 10000 nM.
Turning to `CN1CN(C)c2c(-c3cccc(C(N)=O)c3)ccc3oc(-c4ccc(F)cc4)c(c23)C1=O` [drawing 319], the IC50 in test [1] (Table 1a) was over 10000 nM. In addition, the EC50 in test [2] (Table 1a) was over 10000 nM.
In the case of `CNC(=O)c1c(-c2ccc(F)cc2)oc2ccc(-c3cc(C(=O)NC(C)(C)c4ccccc4)ccc3OC)cc12` [drawing 355], the IC50 in test [1] (Table 1b) is under 250 nM. For the same molecule, in test [2] (Table 1b), the EC50 was under 250 nM.
For `CNC(=O)c1c(-c2ccc(F)cc2)oc2ccc(-c3cc(C(=O)NC4(c5ccccc5)CC4)ccc3OC)cc12` [drawing 356], in test [1] (Table 1b), the IC50 was under 250 nM. The EC50 in test [2] (Table 1b) is under 250 nM.
`CNC(=O)c1c(-c2ccc(F)cc2)oc2ccc(-c3cc(C(=O)NC4(c5ccccc5)CC4)ccc3C)cc12` [drawing 362]: the IC50 in test [1] (Table 1b) is under 250 nM. In test [2] (Table 1b), the EC50 is under 250 nM.
Turning to `CNC(=O)c1c(-c2ccc(F)cc2)oc2ccc(-c3cc(C(=O)NC4(c5ccccn5)CC4)ccc3Cl)cc12` [drawing 384], in test [1] (Table 1b), the IC50 is under 250 nM. Also, in test [2] (Table 1b), the EC50 was under 250 nM.
In the case of `CNC(=O)c1c(-c2ccc(F)cc2)oc2ccc(-c3cc(C(=O)NCC(C)C)ccc3OCCC3CNCCO3)cc12` (centres unmarked) [drawing 415], the IC50 in test [1] (Table 1b) was under 250 nM. Besides, in test [2] (Table 1b), the EC50 is under 250 nM.
On to `CNC(=O)c1c(-c2ccc(F)cc2)oc2ccc(-c3cc(C(=O)NC4(c5ccccn5)CC4)ccc3C)cc12` [drawing 425], for which the IC50 in test [1] (Table 1b) was under 250 nM. Also, the EC50 in test [2] (Table 1b) was under 250 nM.
`CNC(=O)c1c(-c2ccc(F)cc2)oc2ccc(-c3cc(C(=O)NC4(c5nc(C)no5)CC4)c(OC)cc3C)cc12` [drawing 500]: the IC50 in test [1] (Table 1b) was under 250 nM. Further, the EC50 in test [2] (Table 1b) is under 250 nM.
For `CNC(=O)c1c(-c2ccc(F)cc2)oc2ccc(-c3cc(C(=O)NC4(c5ccncc5)CC4)ccc3C)cc12` [drawing 501], the IC50 in test [1] (Table 1b) is under 250 nM. Further, the EC50 in test [2] (Table 1b) is under 250 nM.
Turning to `CNC(=O)c1c(-c2ccc(F)cc2)oc2ccc(-c3cc(C(=O)NC4(c5ccccn5)CC4)cc(F)c3C)cc12` [drawing 558], the IC50 in test [1] (Table 1b) was under 250 nM. In addition, the EC50 in test [2] (Table 1b) was under 250 nM.
In the case of `CNC(=O)c1c(-c2ccc(F)cc2)oc2ccc(-c3cc(C(=O)NC4(c5ncccn5)CC4)ccc3C)cc12` [drawing 570], the IC50 in test [1] (Table 1b) is under 250 nM. Besides, the concentration giving a half-maximal response (EC50) in test [2] (Table 1b) is under 250 nM.
Regarding `CNC(=O)c1c(-c2ccc(F)cc2)oc2ccc(-c3cc(C(=O)NC4(c5ncccn5)CC4)ccc3C)c(F)c12` [drawing 587], in test [1] (Table 1b), the IC50 is under 250 nM. Moreover, the EC50 in test [2] (Table 1b) was under 250 nM.
Take `CNC(=O)c1c(-c2ccc(F)cc2)oc2ccc(-c3cc(C(=O)NC4(c5ccccc5)CC4)ccc3OC)cc12` [drawing 604]: the IC50 in test [1] (untitled table after Table 1b) was found to be 9.95 nM. Further, the EC50 in test [2] (setting [3]) was 1.78 nM.
As to `CNC(=O)c1c(-c2ccc(F)cc2)oc2ccc(-c3cc(C(=O)NC4(c5ccccn5)CC4)ccc3Cl)cc12` [drawing 605], the IC50 in test [1] (untitled table after Table 1b) stood at 10 nM. Besides, in test [2] (setting [3]), the EC50 was 1.83 nM.
For `CNC(=O)c1c(-c2ccc(F)cc2)oc2ccc(-c3cc(C(=O)NC4(c5ccccn5)CC4)ccc3C)cc12` [drawing 606] the same measures were 8.6 nM and 1.95 nM.
For `CNC(=O)c1c(-c2ccc(F)cc2)oc2cc(N)c(-c3cccc(C(=O)NC(C)(C)c4ccccc4)c3)cc12` [drawing 607] the same measures were 5.45 nM and 2.47 nM.
For `CNC(=O)c1c(-c2ccc(F)cc2)oc2ccc(-c3cc(C(=O)NC(C)(C)c4ccccc4)ccc3OC)cc12` [drawing 608] the same measures were 9.65 nM and 3.04 nM.
